Experimental data as given in patent US10441687B2, “Wnt/beta-catenin inhibitor-eluting endovascular stent” (ALBERT EINSTEIN COLLEGE OF MEDICINE, INC., priority 2013, dated 2019).
Entries after “also recorded” stand apart in the source; their conditions may differ.

Columns and labels:
p53 = p53 luciferase-based reporter assay in primary vascular SMCs; type: cell-based; details: control primary vascular SMCs (Adeno-GFP)
Procedure: FIG. 10. […] The activity of p53 was measured by a luciferase-based reporter assay.
(§1) In order to test the role of Wnt/beta-catenin signaling in vascular SMC biology, beta-catenin was specifically inactivated in SMCs, using a genetic approach in the mouse. […] After midgestation, dilated arterial vessels without an evident SMC layer were observed (FIG. 7). […] It was determined that increased p53 activity in SMCs partially explains the effects of inactivating beta-catenin (FIG. 9).

[1] = test system: Primary WT mouse aortic smooth muscle cells; test: alamarBlue cell viability assay in primary mouse aortic smooth muscle cells; type: cell-based; details: 48 hours after treatment; 10% FBS/DMEM; increasing concentrations; p<0.0001 vs vehicle (0 uM)
Procedure: FIG. 11. Primary WT mouse aortic smooth muscle cells cultured in 10% FBS/DMEM medium were exposed to increasing concentrations of ICG-001 or vehicle (triplicates for each concentration). Cell viability was measured 48 hours after treatment by alamarBlue Assay. Cell viability (%, relative to vehicle treated cells, which were set as 100%) is plotted against the concentration of ICG-001 (uM).
as §1

| p53 activity compared to vehicle (DMSO) (p53; 10 uM XAV939, p<0.05) | Compound | p53 activity (p53; wild type, luciferase-based reporter, dose dependence) | Cell viability (%, relative to vehicle treated cells) [1] |
| --- | --- | --- | --- |
| significant increase in p53 activity | Oc1nc(-c2ccc(C(F)(F)F)cc2)nc2c1CSCC2 [XAV939] | induced p53 activity in control primary vascular SMCs (Adeno-GFP) in a dose dependent manner; also recorded: induced p53 activity in wild type vascular SMCs | – |
| – | O=C1[C@H](Cc2ccc(O)cc2)N2C(=O)CCN(C(=O)NCc3ccccc3)[C@H]2CN1Cc1cccc2ccccc12 [ICG-001] | – | significantly decreases viability of MASMCs in culture in a dose-response manner |
